The test system of experiment [1] is Wnt activity (SW480 colon carcinoma cells stably expressing the Sp5-Luc reporter gene). The experiment in a line: Sp5-Luc reporter gene screening assay for Wnt activity in SW480 cells. The class given is cell-based. Particulars: Homo sapiens, 42 h incubation, luminescence. From the text:
The screening assay for Wnt activity is described as follows. Reporter cell lines can be generated by stably transducing cancer cell lines (e.g., colon cancer) or primary cells (e.g., IEC-6 intestinal cells) with a lentiviral construct that includes a Wnt-responsive promoter driving expression of the firefly luciferase gene.
SW480 colon carcinoma cells were transduced with a lentiviral vector expressing luciferase with a human Sp5 promoter consisting of a sequence of eight TCF/LEF binding sites. SW480 cells stably expressing the Sp5-Luc reporter gene and a hygromycin resistance gene were selected by treatment with 150 μg/ml of hygromycin for 7 days. These stably transduced SW480 cells were expanded in cell culture and used for all further screening activities. For Sp5-Luc reporter gene assays, the cells were plated at 10,000 cells/well in 96-well plates with growth medium containing 10% fetal calf serum and incubated overnight at 37° C. and 5% CO2. Each compound was dissolved in DMSO as a 10 mM stock in standard j-vials and used to prepare compound source plates in dose-response format with 3-fold serial dilutions and a 10 mM top concentration. Compound transfer from serially diluted source plates to assay plates containing the cells was accomplished using a pintool (Multimek 96, Beckman equipped with V&P Scientific FP1S50H pins) based liquid handling protocol. This protocol used a slotted pin to transfer 50 nl of compound from a source plate well to an assay plate well containing 50 μl of cells in growth medium. […] Control wells received 50 nl of DMSO treatment for normalization and calculating IC50 values. The treated cells were incubated at 37° C. and 5% CO2 for an additional forty-two hours. Following incubation, the growth medium was removed and 50 μl of BrightGlo luminescence reagent (Promega) was added to each well of the 96-well assay plates. The plates were placed on an orbital shaker for 5 min and then luminescence was quantified on the Victor3 (Perkin Elmer) plate reader. Readings were normalized to DMSO only treated cells, and normalized activities were utilized for IC50 calculations using the dose-response log (inhibitor) vs. response—variable slope (four parameters) nonlinear regression feature available in GraphPad Prism 5.0 or 6.0.
(In general: In a reporter assay the amount or activity of a reporter protein is the signal.)

For experiment [2], the system named is primary human fibroblasts derived from IPF patients (LL29 cells). Briefly: Inhibition of fibrosis (αSMA) in TGF-β1 treated primary human fibroblasts from IPF patients. The class given is cell-based. Particulars: Fibroblast, 96 h, TGF-β1 20 ng/mL, 4 days, % αSMA positive cells. From the text:
The above synthesized compounds were screened using primary human fibroblasts (derived from IPF patients) treated with TGF-β1 to determine their ability to inhibit the fibrotic process.
Primary human fibroblasts derived from IPF patients (LL29 cells) [^1Xiaoqiu Liu, et.al., “Fibrotic Lung Fibroblasts Show Blunted Inhibition by cAMP Due to Deficient cAMP Response Element-Binding Protein Phosphorylation”, Journal of Pharmacology and Experimental Therapeutics (2005), 315(2), 678-687; ^2Watts, K. L., et.al., “RhoA signaling modulates cyclin D1 expression in human lung fibroblasts; implications for idiopathic pulmonary fibrosis”, Respiratory Research (2006), 7(1), 88] were obtained from American Type Culture Collection (ATCC) and expanded in F12 medium supplemented with 15% Fetal Bovine Serum and Penicillin/Streptomycin.
Each compound was dissolved in DMSO as a 10 mM stock and used to prepare compound source plates. Serial dilution (1:2, 11-point dose-response curves from 10 μM to 1.87 nM) and compound transfer was performed using the ECHO 550 (Labcyte, Sunnyvale, Calif.) into 384-well clear bottom assay plates (Greiner Bio-One) with appropriate DMSO backfill for a final DMSO concentration of 0.1%. LL29 cells were plated at 1,500 cells/well in 80 μl/well F12 medium supplemented with 1% Fetal Bovine Serum. One hour after addition of the cells, TGF-β1 (Peprotech; 20 ng/mL) was added to the plates to induce fibrosis (ref. 1 and 2 above). Wells treated with TGF-β1 and containing DMSO were used as controls. Cells were incubated at 37° C. and 5% CO2 for 4 days. Following incubation for 4 days, SYTOX green nucleic acid stain (Life Technologies [Thermo Fisher Scientific]) was added to the wells at a final concentration of 1 uM and incubated at room temperature for 30 min. Cells were then fixed using 4% formaldehyde (Electron Microscopy Sciences), washed 3 times with PBS followed by blocking and permeabilization using 3% Bovine Serum Albumin (BSA; Sigma) and 0.3% Triton X-100 (Sigma) in PBS. Cells were then stained with antibody specific to α-smooth muscle actin (αSMA; Abcam) (ref. 1 and 2 above) in 3% Bovine Serum Albumin (BSA; Sigma) and 0.3% Triton X-100 (Sigma) in PBS, and incubated overnight at 4° C. Cells were then washed 3 times with PBS, followed by incubation with Alexa Flor-647 conjugated secondary antibody (Life Technologies [Thermo Fisher Scientific]) and DAPI at room temperature for 1 hour. Cells were then washed 3 times with PBS and plates were sealed for imaging. αSMA staining was imaged by excitation at 630 nm and emission at 665 nm and quantified using the Compartmental Analysis program on the CellInsight CX5 (Thermo Scientific). Dead or apoptotic cells were excluded from analysis based on positive SYTOX green staining. % of total cells positive for αSMA were counted in each well and normalized to the average of 11 wells treated with TGF-β1 on the same plate using Dotmatics' Studies Software. The normalized averages (fold change over untreated) of 3 replicate wells for each compound concentration were used to create dose-responses curves and EC50 values were calculated using non-linear regression curve fit in the Dotmatics' Studies Software. The EC50 values are reported.

The source of these data is US10280166B2, “2-(1H-indazol-3-yl)-3H-imidazo[4,5-B]pyridine and therapeutic uses thereof” (Samumed, LLC, priority 2014, dated 2019).

Molecules are shown by their SMILES.

Take `CN1CCN(c2ccnc3[nH]c(-c4n[nH]c5ccc(-c6cncc(CN7CCCCC7)c6)cc45)nc23)CC1` [Compound 223, 7-(4-Methylpiperazin-1-yl)-2-(5-(5-(piperidin-1-ylmethyl)pyridin-3-yl)-1H-indazol-3-yl)-3H-imidazo[4,5-b]pyridine]: in experiment [1], the IC50 (as a rule, the concentration that gives 50% inhibition) turned out to be 3070 nM. Also, the concentration for a half-maximal effect (EC50) (usually the concentration at which the effect is half-maximal) in experiment [2] was 0.009 nM.

For `c1cncc(-c2ccnc3[nH]c(-c4n[nH]c5ccc(-c6cncc(CN7CCCCC7)c6)cc45)nc23)c1` [Compound 93, 2-(5-(5-(Piperidin-1-ylmethyl)pyridin-3-yl)-1H-indazol-3-yl)-7-(pyridin-3-yl)-3H-imidazo[4,5-b]pyridine], the IC50 in experiment [1] was greater than 10000 nM. Moreover, in experiment [2], the EC50 was 0.016 nM.

As to `O=C(Nc1cncc(-c2ccc3[nH]nc(-c4nc5c(-c6ccccn6)ccnc5[nH]4)c3c2)c1)C1CCC1` [Compound 150, N-(5-(3-(7-(Pyridin-2-yl)-3H-imidazo[4,5-b]pyridin-2-yl)-1H-indazol-5-yl)pyridin-3-yl)cyclobutanecarboxamide], half-maximal inhibition in experiment [1] (IC50) required 15 nM. The same compound yielded an EC50 in experiment [2] of 0.133 nM.

`O=C(Nc1cncc(-c2ccc3[nH]nc(-c4nc5c(-c6cccc(F)c6)ccnc5[nH]4)c3c2)c1)C1CC1` [Compound 19, N-(5-(3-(7-(3-Fluorophenyl)-3H-imidazo[4,5-b]pyridin-2-yl)-1H-indazol-5-yl)pyridin-3-yl)cyclopropanecarboxamide]: the IC50 in experiment [1] amounted to 1 nM. The compound further had an EC50 in experiment [2] of 0.043 nM.

`CN(C)Cc1cncc(-c2ccc3[nH]nc(-c4nc5cccnc5[nH]4)c3c2)c1` [Compound 247, 1-(5-(3-(3H-Imidazo[4,5-b]pyridin-2-yl)-1H-indazol-5-yl)pyridin-3-yl)-N,N-dimethylmethanamine]: inhibition in experiment [1] was half-maximal at 77 nM (IC50). In experiment [2], this compound gave an EC50 of 0.184 nM.

Compound `CC(C)C(=O)Nc1cncc(-c2ccc3[nH]nc(-c4nc5c(-c6ccoc6)ccnc5[nH]4)c3c2)c1` [Compound 295, N-(5-(3-(7-(Furan-3-yl)-3H-imidazo[4,5-b]pyridin-2-yl)-1H-indazol-5-yl)pyridin-3-yl)isobutyramide] gave an IC50 in experiment [1] of 5.1 nM. The EC50 in experiment [2] worked out at 0.405 nM.

Take `CC(C)(C)C(=O)Nc1cncc(-c2ccc3[nH]nc(-c4nc5c(-c6ccc(F)cc6)ccnc5[nH]4)c3c2)c1` [Compound 34, N-(5-(3-(7-(4-Fluorophenyl)-3H-imidazo[4,5-b]pyridin-2-yl)-1H-indazol-5-yl)pyridin-3-yl)pivalamide]: in experiment [1], the IC50 was found to be 19 nM. This compound also came in with a concentration giving a half-maximal response (EC50) in experiment [2] of 0.334 nM.

For `Cc1ncc(-c2ccc3[nH]nc(-c4nc5c(-c6cccc(F)c6)ccnc5[nH]4)c3c2)n1C` [Compound 1877, 2-(5-(1,2-Dimethyl-1H-imidazol-5-yl)-1H-indazol-3-yl)-7-(3-fluorophenyl)-3H-imidazo[4,5-b]pyridine], the IC50 in experiment [1] was greater than 10000 nM. This compound also gave an EC50 in experiment [2] of 9.99 nM.

In the case of `Cc1cn(-c2ccnc3[nH]c(-c4n[nH]c5ccc(-c6cncc(NC(=O)C7CCC7)c6)cc45)nc23)cn1` [Compound 202, N-(5-(3-(7-(4-Methyl-1H-imidazol-1-yl)-3H-imidazo[4,5-b]pyridin-2-yl)-1H-indazol-5-yl)pyridin-3-yl)cyclobutanecarboxamide], half-maximal inhibition in experiment [1] (IC50) required 4.7 nM. The same compound displayed an EC50 in experiment [2] of 0.018 nM.

In the case of `Fc1cccc(-c2ccnc3[nH]c(-c4n[nH]c5ccc(-c6cncc(OC7CCNCC7)c6)cc45)nc23)c1` [Compound 1880, 7-(3-Fluorophenyl)-2-(5-(5-(piperidin-4-yloxy)pyridin-3-yl)-1H-indazol-3-yl)-3H-imidazo[4,5-b]pyridine], the IC50 in experiment [1] came to 1190 nM. In addition, the EC50 in experiment [2] was found to be 0.417 nM.

`c1cncc(-c2ccc3[nH]nc(-c4nc5cccnc5[nH]4)c3c2)c1` [Compound 238, 2-(5-(Pyridin-3-yl)-1H-indazol-3-yl)-3H-imidazo[4,5-b]pyridine] registered an IC50 in experiment [1] of 28.8 nM. This compound also returned an EC50 in experiment [2] of 0.013 nM.

`Fc1ccc(-c2ccnc3[nH]c(-c4n[nH]c5ccc(-c6cncnc6)cc45)nc23)cc1` [Compound 52, 7-(4-Fluorophenyl)-2-(5-(pyrimidin-5-yl)-1H-indazol-3-yl)-3H-imidazo[4,5-b]pyridine] yielded an IC50 in experiment [1] of 25.6 nM. In experiment [2], this compound returned an EC50 of 1.25 nM.

`CCC(=O)Nc1cncc(-c2ccc3[nH]nc(-c4nc5c(-c6cccc(F)c6)ccnc5[nH]4)c3c2)c1` [Compound 1, N-(5-(3-(7-(3-Fluorophenyl)-3H-imidazo[4,5-b]pyridin-2-yl)-1H-indazol-5-yl)pyridin-3-yl)propionamide]: the IC50 in experiment [1] is less than 1 nM. This compound also displayed an EC50 in experiment [2] of 0.015 nM.

`O=C(Nc1cncc(-c2ccc3[nH]nc(-c4nc5c(-c6ccccc6F)ccnc5[nH]4)c3c2)c1)C1CCCC1` [Compound 73, N-(5-(3-(7-(2-Fluorophenyl)-3H-imidazo[4,5-b]pyridin-2-yl)-1H-indazol-5-yl)pyridin-3-yl)cyclopentanecarboxamide] gave an IC50 in experiment [1] of 13 nM. The same compound gave an EC50 in experiment [2] of 0.379 nM.

As to `Fc1cccc(-c2ccnc3[nH]c(-c4n[nH]c5ccc(-c6cncc(OC7CCCCC7)c6)cc45)nc23)c1` [Compound 1879, 2-(5-(5-(Cyclohexyloxy)pyridin-3-yl)-1H-indazol-3-yl)-7-(3-fluorophenyl)-3H-imidazo[4,5-b]pyridine], the IC50 in experiment [1] was greater than 10000 nM. Further, the response in experiment [2] was half-maximal at 9.99 nM (EC50).

In experiment [1], `O=C(CC1CCCCC1)Nc1cncc(-c2ccc3[nH]nc(-c4nc5c(-c6cccc(F)c6)ccnc5[nH]4)c3c2)c1` [Compound 1887, 2-Cyclohexyl-N-(5-(3-(7-(3-fluorophenyl)-3H-imidazo[4,5-b]pyridin-2-yl)-1H-indazol-5-yl)pyridin-3-yl)acetamide] returned an IC50 greater than 10000 nM. The same compound displayed an EC50 in experiment [2] of 9.99 nM.

In experiment [1], `CN1CCN(c2ccnc3[nH]c(-c4n[nH]c5ccc(-c6cncc(NC(=O)C7CCCC7)c6)cc45)nc23)CC1` [Compound 229, N-(5-(3-(7-(4-Methylpiperazin-1-yl)-3H-imidazo[4,5-b]pyridin-2-yl)-1H-indazol-5-yl)pyridin-3-yl)cyclopentanecarboxamide] came in with an IC50 of 284 nM. Further, in experiment [2], the EC50 was 1.07 nM.

As for `O=C(Nc1cncc(-c2ccc3[nH]nc(-c4nc5cccnc5[nH]4)c3c2)c1)C1CCCCC1` [Compound 256, N-(5-(3-(3H-Imidazo[4,5-b]pyridin-2-yl)-1H-indazol-5-yl)pyridin-3-yl)cyclohexanecarboxamide], the midpoint of inhibition in experiment [1], the IC50, lay at 66.3 nM. In experiment [2], the EC50 was determined as 0.401 nM.
